The values below come from US8637237B2, “Methods, compositions, and systems for the identification of species-specific or developmental stage-specific insecticides” (The University of North Carolina at Greensboro, priority 2003, dated 2014).

The test system of one assay is insect. To be noted: from Schneiderman and Gilbert, Science 143; cited from earlier work.
Assay [1] relates to Drosophila melangaster EcR isoforms. Put plainly: Drosophila melanogaster EcR isoforms, response to ecdysteroid agonists (FIG. 8). The assay is classed as cell-based. How it is done: Unless noted otherwise, 100 ng of each EcR and USP plasmid was transfected into 2 ml of cell culture medium. As noted above, a reporter gene carrying five tandem copies of the hsp27 ecdysone response element (Riddihough and Pelham, 1986) is attached to a constitutive thymidine kinase promoter and a luciferase reporter gene (pEcREtk-LUC) and cotransfected into the cells along with vectors expressing EcR, USP, and a constitutively active β-galactosidase gene with lipofection, following manufacturer's protocols. The subsequent measure of luciferase activity reflects ecdysteroid-inducible transcription.
The Drosophila EcR isoform vectors (A, B1, and B2) used for these experiments have been described previously (Mouillet et al, 2001). These vectors lack the F-domain, which is also not essential for in vivo function (Cherbas et al, 2003). Additionally, three different VP16-USP vectors were utilized. Construction is of the VP16-USP vectors is described below. As in the earlier study, hsp27-EcRE mediated transcriptional activity was measured by detecting the luminescence produced by luciferase in transfected cell extracts. Luciferase activity was normalized by transfection with a plasmid that constitutively expresses the β-galactosidase gene such that enzymatic activity correlated with cellular mass. […]

For the compound `CC(C)=CCCC(C)=CCCC(C)=CC(=O)O` [farnesoic acid], the “JH ACTIVITY (units/g)” value in the assay on insect is on record as 7.8 units/g.

Consider `CC(C)CC[C@@H](O)[C@](C)(O)[C@H]1CC[C@@]2(O)C3=CC(=O)[C@]4(O)C[C@@H](O)[C@@H](O)C[C@]4(C)[C@H]3[C@H](O)C[C@]12C` [murA, muristerone A], for which the “stimulation of Drosophila EcR isoforms, agonists compared” value in assay [1] was “much greater stimulation by murA, than either 20E or RH 2485”.
